# Measured values: US5801182A, “Amine substituted compounds” (Cell Therapeutics, Inc., priority 1995, dated 1998)
# System: human stromal cells
# Experiment: PDGF-induced proliferation in human stromal cells
# Assay type: cell-based
# Settings: 50 ng/ml PDGF-BB; human stromal cells; FIG. 23
# Method: 3506 on PDGF-induced proliferation in human stromal cells. Procedurally, human stromal cells were starved in serum-free media for 24 hours and then stimulated with 50 ng/ml PDGF. Compound no. 3506 was added at various concentrations one hour prior to PDGF stimulation and pulsed for 24 hours. Cells were harvested and cell proliferation measured having background counts (i.e., starved cells) at about 10% of control levels.
# Human stromal cells were starved in serum-free media for 24 hours and then stimulated with 50 ng/ml PDGF-BB. The drugs were added at various concentrations one hour prior to PDGF stimulation. Tritiated thymidine was added at the time of PDGF stimulation and pulsed for 24 hours. Cells were harvested and cell proliferation measured (FIG. 23). Background counts (i.e., starved cells) were about 10% of control levels.
row,SMILES,concentration at which comparative compounds' activity is apparent
1,"CC(CCCCn1c(=O)c2c(ncn2C)n(C)c1=O)N(C)C (centres unmarked) [B, 1-(5-dimethylaminohexyl)-3,7-dimethylxanthine]",millimolar concentrations
2,"CC(=O)CCCCCCn1c(=O)c2c(ncn2C)n(C)c1=O [A, 1-(7-oxooctyl)-3,7-dimethylxanthine]",millimolar concentrations

# Same assay, conditions: 50 ng/ml PDGF; compound added one hour prior; FIG. 1
row,SMILES,PDGF-induced proliferation in human stromal cells
1,CCCCCCCCCCCNCCCCCCn1c(=O)c2c(ncn2C)n(C)c1=O [compound no. 3506],inhibition of PDGF-induced proliferation

# System: Balb/3T3 cells
# Experiment: PDGF-induced proliferation of Balb/3T3 cells (tritiated thymidine)
# Assay type: cell-based
# Settings: Mus musculus, BALB/3T3, 24 h; PDGF-stimulated; FIGS. 2 and 4; read-out: concentrations inhibiting proliferation of Balb/3T3 cells stimulated by PDGF
# Method: Disregulated PDGF-proliferative response has been linked to a variety of diseases, including, e.g., restenosis, atherosclerosis, fibrosis, and tumor cell angiogenesis. Balb/3T3 cells respond vigorously to PDGF stimulation, and are useful in vitro models for further study of PDGF-induced proliferation.
# Balb/3T3 cells were plated in low serum-containing medium for 24 hours prior to stimulation with various concentrations of inventive compounds nos. 3556 and 4500. PDGF was added at varying concentrations along with tritiated thymidine. The cells were allowed to incubate for one day, following addition of PDGF and thymidine. Twenty-four hours later, the cells were harvested and counted by liquid scintillation counting. FIGS. 2 and 4 report data for inventive compounds nos. 3556 and 4500, respectively, obtained in this proliferation assay. The results shown in each respective figure illustrate that inventive compounds nos.
row,SMILES,minimal effective concentration
1,CCCCCCN(C)CCCCCCCCCCCn1c(=O)c2c(ncn2C)n(C)c1=O [compound no. 4500],< 30 µM
2,"CCCCCCCCNCCCCCCCCCCCn1c(=O)c2c(ncn2C)n(C)c1=O [compound no. 3556, 1-(11-octylaminoundecyl)-3,7-dimethylxanthine]",< 30 µM

# System: Balb/3T3 cells
# Experiment: Viability (cytotoxicity) assay of Balb/3T3 cells with BCECF
# Assay type: cell-based
# Settings: at the concentrations at which the compounds inhibit proliferation; vs control value of 100%; FIGS. 3 and 5
# Method: In conjunction with the Balb/3T3 proliferation assay, a related viability assay was conducted to assess the cytotoxicity of compounds which inhibit proliferation in this system. The assay protocol was identical to that performed above except that tritiated thymidine was not added after the 24 hour incubation with PDGF. In this cytotoxicity assay, after incubating the cells, a 10 μM solution of BCECF was added and the cells were incubated for 30 minutes at 37° C. Following this incubation, BCECF was replaced with PBS and the plate read for fluorescence in a Millipore cytofluorometer. Data obtained was plotted as a percent of control versus concentration of inventive compound tested. FIGS. 3 and 5 represent the results of this viability assay, for compounds nos. 3556 and 4500, respectively.
row,SMILES,cytotoxicity to Balb/3T3 cells
1,CCCCCCN(C)CCCCCCCCCCCn1c(=O)c2c(ncn2C)n(C)c1=O [compound no. 4500],not cytotoxic to any cells
2,"CCCCCCCCNCCCCCCCCCCCn1c(=O)c2c(ncn2C)n(C)c1=O [compound no. 3556, 1-(11-octylaminoundecyl)-3,7-dimethylxanthine]",not cytotoxic to any cells

# System: thymocytes
# Experiment: Thymocyte proliferation and activation, co-stimulated with Con A and IL-2
# Assay type: cell-based, Balb/C mice
# Settings: Mus musculus, 2 h, compound added two hours prior, FIGS. 6-11
# Method: 3506, 3556, 3563, 3576, 3581, 3582 and 3584 on thymocyte proliferation and activation, co-stimulated with Concanavalin A (Con A) and interleukin-2 (IL-2), at various concentrations of the compounds (IC50). Con A and IL-2 together stimulate T cell proliferation and differentiation.
# Thymuses, obtained from normal, female Balb/C mice, were dissociated and plated into 96-well plates at a density of 2×10^5 cells/well. Con A ([…]) and IL-2 (15 U/ml) were added to the wells. The cells were incubated for 4 days at 37° C. On day 4, the cells were pulsed with tritiated thymidine and incubated for an additional 4 hours. Incorporated tritiated thymidine of harvested cells was determined in a liquid scintillation counter. Results plotted as dose concentration versus proliferation for inventive compounds nos. 3506, 3556, 3563, 3576, 3581, 3582 and 3584 are shown in FIGS. 6 (3506), 7 (3556), 8 (3563), 9 (3576), 10 (3581 and 3582) and 11 (3584). Respective concentrations of inventive compound (shown in the figures) were added two hours prior to Con A and IL-2 activation. Background counts were less than 200 cpm.
row,SMILES,IC50
1,CCCCCCCCCCCCN(C)CCCCCCCCCCCn1c(=O)c2c(ncn2C)n(C)c1=O [compound 3576],0.26 µM
2,CCCCCCCCCCCNCCCCCCn1c(=O)c2c(ncn2C)n(C)c1=O [compound no. 3506],2.3 µM

# System: Mouse bone marrow cells (CFU-GM)
# Experiment: CFU-GM colony assay, effect on normal bone marrow cells
# Assay type: cell-based
# Settings: 8 hours incubation, CFU-GM after 7 days; FIGS. 12-16
# From the text: This example illustrates a method for examining an effect of the inventive compounds, showing potential as cancer therapies on normal cells. This assay has been used clinically to evaluate recovery of patients' marrow following chemotherapy or radiation. In this specific example, inventive compounds nos.
# Mouse bone marrow cells are useful in this assay because they produce colonies, which can later be counted, in culture. The colonies are called colony forming unit-granulocyte macrophage (CFU-GM) and depend on a source of colony stimulating factor for growth.
# Cells were cultured with inventive compounds nos. 3563, 3576, 3581, 3584 and 4500, to comparatively evaluate an effect on normal cells of inventive compounds identified as potential cancer therapies. Procedurally, cells were incubated for 8 hours with various concentrations of these compounds. A negative control without any compound was simultaneously prepared. After 8 hours, the incubated cells were washed thoroughly and a consistent number were subsequently plated to obtain CFU-GM. Colonies were permitted to grow for 7 days at 37° C., in 5% CO2. After 7 days of growth, colony growths were counted microscopically. Data obtained in this assay for inventive compounds nos. 3563, 3576, 3581, 3584 and 4500 are plotted in FIGS. 12, 13, 14, 15 and 16, respectively. The data in the figures are shown to compare the colonies counted for cells incubated with varying concentrations of the compounds tested against the negative control, without compound. At concentrations ranging from 5 to 30 μM, more colonies existed for cells incubated with the inventive potential cancer compound than with known, chemotherapeutic agents. Compound no.
row,SMILES,toxicity for normal mouse marrow cells
1,CCCCCCN(C)CCCCCCCCCCCn1c(=O)c2c(ncn2C)n(C)c1=O [compound no. 4500],virtually no toxicity at elevated concentrations
2,CCCCCCCCCCCCNCCCCCCCCCCCn1c(=O)c2c(ncn2C)n(C)c1=O [compound no. 3563],most cytotoxic to proliferative potential of the mouse marrow cells

# Same assay, conditions: vs vinblastine, 5-fluorouracil, doxorubicin or cisplatinum
row,SMILES,effect on normal cells compared to known chemotherapeutic compounds in vitro
1,CCCCCCCCCCCCN(C)CCCCCCCCCCCn1c(=O)c2c(ncn2C)n(C)c1=O [compound 3576],less deleterious to normal cells
2,CCCCCCCCCCCCNCCCCCCCCCCCn1c(=O)c2c(ncn2C)n(C)c1=O [compound no. 3563],less deleterious to normal cells

# System: HIV long terminal repeat (LTR) promotor
# Experiment: Inhibition of reporter gene (alkaline phosphatase) expression directed by HIV-LTR promotor in 293-EBNA cells
# Assay type: cell-based
# Settings: Human immunodeficiency virus 1; reporter gene directed by HIV-LTR promotor in 293-EBNA cells; FIGS. 17, 19, 21
# From the text: This example is an assay used to measure anti-viral activity of inventive compounds nos. […] This assay is predictive of anti-viral activity for retroviruses. Specifically,a plasmid construct, pHIV.AP, using the human immunodeficiency virus (HIV) long terminal repeat (LTR) promotor [derived from pU3R-III CAT (Sodroski et al. Science, Vol. 227, page 171, 1985) to direct the expression of secreted human placental alkaline phosphatase reporter gene and an expression vector for a 72 amino acids tat protein from HIV (Frankel et al., Cell, Vol. 55, pages 1189-1193, 1988) were transfected into a tumor cell line (e.g., 293-EBNA cells). The stably transfected cells were treated with various concentrations of the inventive compounds. The expression of the alkaline phosphatase (AP) reporter gene in the individual cultures was then measured by following the change in absorbance at A405 of cell conditioned media in the presence of a suitable substrate (e.g., ortho-nitrophenol phosphate). Berger et al., Gene, Vol. 66, pages 1-10, 1988.
row,SMILES,IC50
1,CCCCCCN(C)CCCCCCCCCCCn1c(=O)c2c(ncn2C)n(C)c1=O [compound no. 4500],< 10 µM
2,CCCCCCCCCCCCN(C)CCCCCCCCCCCn1c(=O)c2c(ncn2C)n(C)c1=O [compound 3576],< 10 µM
3,CCCCCCCCCCCCNCCCCCCCCCCCn1c(=O)c2c(ncn2C)n(C)c1=O [compound no. 3563],< 4 µM
4,"CCCCCCCCNCCCCCCCCCCCn1c(=O)c2c(ncn2C)n(C)c1=O [compound no. 3556, 1-(11-octylaminoundecyl)-3,7-dimethylxanthine]",~2.5 µM

# System: not listed separately
# Experiment: Viability of 293-EBNA cells (alamarBlue colorimetric assay)
# Assay type: cell-based
# Settings: human, 293-ebna cells; alamarBlue; FIGS. 18, 20, 21; read-out: LD50, 293-EBNA cells
# Method: (§1) The effect of respective inventive compounds on the viability of 293-EBNA cells was measured by a colorimetric assay that uses the alamarBlue® dye (purchased from Alamar Biosciences, Inc.) to report cell proliferation, viability and cytotoxicity. This dye is an oxidation-reduction (Redox) indicator that changes color in response to chemical reduction of growth medium resulting from cell growth. The general procedure involves adding alamarBlue® in an amount equal to 10% of the culture volume, returning the culture to incubator for four hours, and measuring the absorbance at 570 nm after subtraction of background absorbance at 600 nm.
row,SMILES,CC50
1,CCCCCCCCCCCCN(C)CCCCCCCCCCCn1c(=O)c2c(ncn2C)n(C)c1=O [compound 3576],< 15 µM
2,CCCCCCCCCCCCNCCCCCCCCCCCn1c(=O)c2c(ncn2C)n(C)c1=O [compound no. 3563],< 7 µM
3,"CCCCCCCCNCCCCCCCCCCCn1c(=O)c2c(ncn2C)n(C)c1=O [compound no. 3556, 1-(11-octylaminoundecyl)-3,7-dimethylxanthine]",~12.5 µM

# System: 293-EBNA cells
# Experiment: as above
# Assay type: cell-based
# Settings: not given
# Method: as §1
row,SMILES,concentration at which cytotoxicity becomes significant
1,"CCCCCCCCNCCCCCCCCCCCn1c(=O)c2c(ncn2C)n(C)c1=O [compound no. 3556, 1-(11-octylaminoundecyl)-3,7-dimethylxanthine]",> 10 µM

# System: JR-CSF strain of HIV-1
# Experiment: HIV-1 JR-CSF infection of human peripheral blood lymphocytes (p24 antigen ELISA)
# Assay type: cell-based
# Settings: 1 μM; JR-CSF HIV-1; FIG. 22
# Method: 3556, to prevent promotion of fresh isolates of JR-CSF strain of HIV-1 infection of human peripheral blood lymphocytes (PBL).
# In a protocol for infecting a PBL cell suspension, JR-CSF HIV-1 was clarified at low-speed centrifugation (2,000-3,000 rpm) or filtration and stored in aliquots at -70° C. To maintain consistent titers, HIV-1 aliquots were not subjected to repeated freezing and thawing and any remainder was discarded. Virus aliquots were thawed at room temperature or under cold running water for more rapid thawing and maintained in ice after thawing. Just prior to infection of PBL cells, the supernatant or dilution were warmed to room temperature.
# Human PBL cells taken from a suitable donor were centrifuged down at 1000 rpm for 5-10 minutes at room temperature. While cells were spinning, the virus inoculum was prepared in medium by adding 10 μg/ml Polybrene®. The centrifuged cells were resuspended in virus inoculum, using 1 ml of virus inoculum per 10^7 cells. A more efficient HIV-1 infection is obtained with smaller amounts of inoculum. The cells were incubated at 37° C. in the presence of virus inoculum for 2 hours, shaking the suspension every half hour. After 2 hours, the suspension was spun down, the virus inoculum removed and the cells were washed with 10 ml of fresh media. […]
row,SMILES,decrease of HIV-1 infection of PBL
1,"CCCCCCCCNCCCCCCCCCCCn1c(=O)c2c(ncn2C)n(C)c1=O [compound no. 3556, 1-(11-octylaminoundecyl)-3,7-dimethylxanthine]",decreased infection by about two to three fold

# Same assay, conditions: 10 and 20 μM; JR-CSF HIV-1; FIG. 22
row,SMILES,HIV-1 infection of PBL
1,"CCCCCCCCNCCCCCCCCCCCn1c(=O)c2c(ncn2C)n(C)c1=O [compound no. 3556, 1-(11-octylaminoundecyl)-3,7-dimethylxanthine]",virtually eliminated viral infection
